Data reported in ChEMBL document CHEMBL1201862, “PubChem BioAssay data set” (2004).
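48-hour exposure; five concentrations; linearly interpolated endpoints. GI50 is the concentration that inhibits growth by half.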 Activity calls are given as the source filed them. Rule as the data show it: active = GI50 up to about 1.1 µM and inactive = higher. Where a SMILES comes first, the peptide text is derived from it. [ ]: non-standard residue; d: D form. The star is where a group is joined. ξ: configuration not given here. ξPhe(4-NO2) = NC(Cc1ccc([N+](=O)[O-])cc1)C(=O)O; Boc = CC(C)(C)OC(=O)*; OBn = c1ccc(CO*)cc1

What was measured:
Test in all cases: NCI-60 cell line screen, 48 h
CAKI-1 = tested on: CAKI-1
HL-60 = tested on: HL-60
LOX IMVI = tested on: LOX IMVI
SF-268 = tested on: SF-268
MDA-MB-435 = tested on: MDA-MB-435
NCI/ADR-RES = tested on: NCI/ADR-RES
CCRF-CEM = tested on: CCRF-CEM
SK-MEL-2 = tested on: SK-MEL-2
HCC 2998 = tested on: HCC 2998
UACC-62 = tested on: UACC-62
TK-10 = tested on: TK-10
UACC-257 = tested on: UACC-257
COLO 205 = tested on: COLO 205
IGROV-1 = tested on: IGROV-1
T47D = tested on: T47D
MDA-MB-231 = tested on: MDA-MB-231
OVCAR-5 = tested on: OVCAR-5
M14 = tested on: M14
OVCAR-3 = tested on: OVCAR-3
HOP-62 = tested on: HOP-62

Row | SMILES | GI50 (CAKI-1) | GI50 (HL-60) | GI50 (LOX IMVI) | GI50 (SF-268) | GI50 (MDA-MB-435) | GI50 (NCI/ADR-RES) | GI50 (CCRF-CEM) | GI50 (SK-MEL-2) | GI50 (HCC 2998) | GI50 (UACC-62) | GI50 (TK-10) | GI50 (UACC-257) | GI50 (COLO 205) | GI50 (IGROV-1) | GI50 (T47D) | GI50 (MDA-MB-231) | GI50 (OVCAR-5) | GI50 (M14) | GI50 (OVCAR-3) | GI50 (HOP-62)
1 | N#Cc1c(=O)c2ccccc2n2ccccc12 | > 100 µM (inactive) | > 100 µM (inactive) | > 100 µM (inactive) | > 100 µM (inactive) | > 100 µM (inactive) | > 100 µM (inactive) | > 100 µM (inactive) | 13.4 µM (inactive) | > 100 µM (inactive) | > 100 µM (inactive) | > 100 µM (inactive) | > 100 µM (inactive) | > 100 µM (inactive) | > 100 µM (inactive) | > 100 µM (inactive) | > 100 µM (inactive) | – | – | – | –
2 | [N-]=[N+]=NC1CC(n2ccc(N)nc2=O)OC1COP(=O)(O)OP(=O)(O)OP(=O)(O)O (stereo unspecified) | > 100 µM (inactive) | > 100 µM (inactive) | > 100 µM (inactive) | > 100 µM (inactive) | > 100 µM (inactive) | > 100 µM (inactive) | > 100 µM (inactive) | – | > 100 µM (inactive) | > 100 µM (inactive) | – | > 100 µM (inactive) | > 100 µM (inactive) | > 100 µM (inactive) | > 100 µM (inactive) | > 100 µM (inactive) | > 100 µM (inactive) | > 100 µM (inactive) | > 100 µM (inactive) | > 100 µM (inactive)
3 | CSc1c(C#N)c(=O)[nH]c2[nH]nc(C)c12 | 22.1 µM (inactive) | > 100 µM (inactive) | > 100 µM (inactive) | > 100 µM (inactive) | > 100 µM (inactive) | > 100 µM (inactive) | > 100 µM (inactive) | > 100 µM (inactive) | > 100 µM (inactive) | > 100 µM (inactive) | > 100 µM (inactive) | > 100 µM (inactive) | > 100 µM (inactive) | – | > 100 µM (inactive) | > 100 µM (inactive) | > 100 µM (inactive) | > 100 µM (inactive) | > 100 µM (inactive) | –
4 | CCNc1nc(N)c(C(=O)c2cccs2)s1 | 8.69 µM (inactive) | 4.1 µM (inactive) | 18.4 µM (inactive) | 32.8 µM (inactive) | 20.9 µM (inactive) | 35 µM (inactive) | – | 16.5 µM (inactive) | 34.3 µM (inactive) | 24.2 µM (inactive) | 48 µM (inactive) | 46.9 µM (inactive) | 7.05 µM (inactive) | 10.6 µM (inactive) | 19.1 µM (inactive) | 50.4 µM (inactive) | 31.3 µM (inactive) | 37.8 µM (inactive) | 22 µM (inactive) | 30.9 µM (inactive)
5 | COC(=O)CCc1ccc2c(c1)CC1(C2)Cc2ccc3c(c2C1)CCC3 (stereo unspecified) | – | 30.3 µM (inactive) | > 100 µM (inactive) | > 100 µM (inactive) | 38.1 µM (inactive) | > 100 µM (inactive) | 61.7 µM (inactive) | – | 52.4 µM (inactive) | 23.6 µM (inactive) | > 100 µM (inactive) | > 100 µM (inactive) | 80.4 µM (inactive) | > 100 µM (inactive) | 18.8 µM (inactive) | 89.1 µM (inactive) | > 10 µM (inactive) | 59.2 µM (inactive) | > 100 µM (inactive) | > 100 µM (inactive)
6 | Cc1c(F)c(N)c2c(=O)cc(-c3ccc(NC(=O)C(N)CCCNC(=N)N)c(F)c3)oc2c1F (stereo unspecified) | 0.0792 µM (active) | > 52 µM (inactive) | 38.1 µM (inactive) | 32.7 µM (inactive) | 27.2 µM (inactive) | 23.9 µM (inactive) | > 88.3 µM (inactive) | 23.4 µM (inactive) | 0.134 µM (active) | – | 0.146 µM (active) | 0.262 µM (active) | 23.8 µM (inactive) | 0.0759 µM (active) | 0.411 µM (active) | 22.5 µM (inactive) | 0.299 µM (active) | 31.7 µM (inactive) | – | > 52.2 µM (inactive)
7 | CC(C)(C)OC(=O)NC(Cc1ccc([N+](=O)[O-])cc1)C(=O)NCC(=O)OCc1ccccc1 (stereo unspecified) (Boc-[ξPhe(4-NO2)]-Gly-OBn) | 13.1 µM (inactive) | 36.1 µM (inactive) | 14.1 µM (inactive) | 19.5 µM (inactive) | 16.9 µM (inactive) | 42 µM (inactive) | 13.9 µM (inactive) | – | 19.6 µM (inactive) | 17 µM (inactive) | > 100 µM (inactive) | – | 17.1 µM (inactive) | > 100 µM (inactive) | 44.1 µM (inactive) | 31.3 µM (inactive) | > 100 µM (inactive) | 19.5 µM (inactive) | 19 µM (inactive) | 17.3 µM (inactive)
8 | Br/C(=N\N=c1/nn[nH][nH]1)c1ccncc1 | > 100 µM (inactive) | > 100 µM (inactive) | > 100 µM (inactive) | > 100 µM (inactive) | > 100 µM (inactive) | > 100 µM (inactive) | > 100 µM (inactive) | > 100 µM (inactive) | – | > 100 µM (inactive) | > 100 µM (inactive) | > 100 µM (inactive) | > 100 µM (inactive) | > 100 µM (inactive) | > 100 µM (inactive) | > 100 µM (inactive) | > 100 µM (inactive) | > 100 µM (inactive) | > 100 µM (inactive) | > 100 µM (inactive)
9 | CC1=CC2(O)OC3(CC2=C(C)C)C(C)CCC13 (stereo unspecified) | > 100 µM (inactive) | > 100 µM (inactive) | > 100 µM (inactive) | > 100 µM (inactive) | > 100 µM (inactive) | > 100 µM (inactive) | > 100 µM (inactive) | > 100 µM (inactive) | – | > 100 µM (inactive) | > 100 µM (inactive) | > 100 µM (inactive) | > 100 µM (inactive) | > 100 µM (inactive) | > 100 µM (inactive) | > 100 µM (inactive) | > 100 µM (inactive) | > 100 µM (inactive) | > 100 µM (inactive) | > 100 µM (inactive)
10 | COc1ccccc1NC(=O)CC(=O)N1N=C(N2c3ccccc3Sc3ccccc32)CC1c1ccccc1 (stereo unspecified) | > 100 µM (inactive) | > 100 µM (inactive) | – | > 100 µM (inactive) | > 100 µM (inactive) | > 100 µM (inactive) | > 100 µM (inactive) | > 100 µM (inactive) | > 100 µM (inactive) | > 100 µM (inactive) | > 100 µM (inactive) | > 100 µM (inactive) | > 100 µM (inactive) | > 100 µM (inactive) | > 100 µM (inactive) | > 100 µM (inactive) | > 100 µM (inactive) | > 100 µM (inactive) | > 100 µM (inactive) | > 100 µM (inactive)
11 | O=C(Nc1nc(C23CC4CC(CC(C4)C2)C3)cs1)c1cc2cc(Br)cc(Br)c2oc1=O | > 100 µM (inactive) | 65.5 µM (inactive) | > 100 µM (inactive) | 37.8 µM (inactive) | 67.5 µM (inactive) | > 100 µM (inactive) | 27.7 µM (inactive) | 51.5 µM (inactive) | 75.7 µM (inactive) | > 100 µM (inactive) | > 100 µM (inactive) | > 100 µM (inactive) | > 100 µM (inactive) | > 100 µM (inactive) | > 100 µM (inactive) | 52.6 µM (inactive) | > 100 µM (inactive) | – | 61.4 µM (inactive) | 70.8 µM (inactive)
12 | C/N=c1/oc2ccccc2cc1C(N)=O | > 100 µM (inactive) | > 100 µM (inactive) | > 100 µM (inactive) | > 100 µM (inactive) | > 100 µM (inactive) | > 100 µM (inactive) | > 100 µM (inactive) | > 100 µM (inactive) | > 100 µM (inactive) | 64.1 µM (inactive) | > 100 µM (inactive) | > 100 µM (inactive) | > 100 µM (inactive) | 53.3 µM (inactive) | > 100 µM (inactive) | > 100 µM (inactive) | – | > 100 µM (inactive) | > 100 µM (inactive) | > 100 µM (inactive)
13 | CCOC(=O)C1C/C(C)=C(/C)SCCCS1 (stereo unspecified) | – | 28.6 µM (inactive) | 68.5 µM (inactive) | > 100 µM (inactive) | > 100 µM (inactive) | > 100 µM (inactive) | – | > 100 µM (inactive) | > 100 µM (inactive) | > 100 µM (inactive) | > 100 µM (inactive) | > 100 µM (inactive) | > 100 µM (inactive) | > 100 µM (inactive) | 60.3 µM (inactive) | > 100 µM (inactive) | > 100 µM (inactive) | > 100 µM (inactive) | 98.9 µM (inactive) | > 100 µM (inactive)
14 | Nc1ccc2nc(N)n[n+]([O-])c2c1 | > 100 µM (inactive) | > 100 µM (inactive) | > 100 µM (inactive) | > 100 µM (inactive) | > 100 µM (inactive) | > 100 µM (inactive) | > 100 µM (inactive) | > 100 µM (inactive) | – | > 100 µM (inactive) | > 100 µM (inactive) | > 100 µM (inactive) | > 100 µM (inactive) | > 100 µM (inactive) | > 100 µM (inactive) | > 100 µM (inactive) | > 100 µM (inactive) | > 100 µM (inactive) | > 100 µM (inactive) | > 100 µM (inactive)
15 | O=C(O)Cn1ccc(=O)c2c([N+](=O)[O-])cccc21 | > 100 µM (inactive) | > 100 µM (inactive) | – | > 100 µM (inactive) | > 100 µM (inactive) | > 100 µM (inactive) | > 100 µM (inactive) | > 100 µM (inactive) | > 100 µM (inactive) | > 100 µM (inactive) | > 100 µM (inactive) | > 100 µM (inactive) | > 100 µM (inactive) | > 100 µM (inactive) | > 100 µM (inactive) | > 100 µM (inactive) | > 100 µM (inactive) | > 100 µM (inactive) | > 100 µM (inactive) | > 100 µM (inactive)
